Experimental data reported in ChEMBL document CHEMBL1681742, “Novel second generation analogs of eribulin. Part I: Compounds containing a lipophilic C32 side chain overcome P-glycoprotein susceptibility” (Bioorg Med Chem Lett, 2011).
pIC50: −log10 of the molar value.

Assays:
[1] = Cytotoxicity against human IMR90 cells up to 1 uM; assay type: cell-based; conditions: imr-90
[2] = Antiproliferative activity against human MES-SA cells assessed as growth inhibition; assay type: functional, cell-based
[3] = Fold resistance, ratio of IC50 for antiproliferative activity for P-gp overexpressing human MES-SA/Dx5-Rx1cells to IC50 for antiproliferative activity for human MES-SA cells
[4] = Antiproliferative activity against P-gp overexpressing human MES-SA/Dx5-Rx1 cells assessed as growth inhibition; assay type: functional
HCT-15 = test: Antiproliferative activity against human HCT15 cells assessed as growth inhibition; assay type: functional, cell-based
DLD-1 = test: Antiproliferative activity against human DLD1 cells assessed as growth inhibition; assay type: functional, cell-based

Compound | pIC50 (HCT-15) | pIC50 (DLD-1) | Activity [1] | pIC50 [2] | Ratio IC50 [3] | pIC50 [4]
C=C1C[C@@H]2CC[C@@]34C[C@H]5O[C@H]6[C@@H](O3)[C@H]3O[C@H](CC[C@@H]3O[C@H]6[C@H]5O4)CC(=O)C[C@@H]3[C@@H](OC)[C@@H](C[C@H]4COCCO4)O[C@H]3C[C@H]3O[C@@H](CC[C@@H]1O2)C[C@@H](C)C3=C | 8.91 | 9.06 | Non-toxic | 9.00 | 22.96 | 7.64
C=C1C[C@@H]2CC[C@@]34C[C@H]5O[C@H]6[C@@H](O3)[C@H]3O[C@H](CC[C@@H]3O[C@H]6[C@H]5O4)CC(=O)C[C@@H]3[C@@H](OC)[C@@H](C[C@H](O)COC(C)=O)O[C@H]3C[C@H]3O[C@@H](CC[C@@H]1O2)C[C@@H](C)C3=C | – | – | Non-toxic | 9.96 | 33 | 8.46
COc1cccc2c1C(=O)c1c(O)c3c(c(O)c1C2=O)C[C@@](O)(C(=O)CO)C[C@@H]3O[C@H]1C[C@H](N)[C@H](O)[C@H](C)O1 [DOXORUBICIN] | 6.81 | – | Non-toxic | 7.58 | 134 | 5.57
CC(=O)O[C@H]1C(=O)[C@@]2(C)[C@H]([C@H](OC(=O)c3ccccc3)[C@]3(O)C[C@H](OC(=O)[C@H](O)[C@@H](NC(=O)c4ccccc4)c4ccccc4)C(C)=C1C3(C)C)[C@]1(OC(C)=O)CO[C@@H]1C[C@@H]2O [PACLITAXEL] | – | – | Non-toxic | 8.53 | >338 | < 6.00
C=C1C[C@@H]2CC[C@@]34C[C@H]5O[C@H]6[C@@H](O3)[C@H]3O[C@H](CC[C@@H]3O[C@H]6[C@H]5O4)CC(=O)C[C@@H]3[C@@H](OC)[C@@H](C[C@H](O)CO)O[C@H]3C[C@H]3O[C@@H](CC[C@@H]1O2)C[C@@H](C)C3=C | 9.66 | 9.27 | Non-toxic | 10.52 | 216.5 | 8.19
C=C1C[C@@H]2CC[C@@]34C[C@H]5O[C@H]6[C@@H](O3)[C@H]3O[C@H](CC[C@@H]3O[C@H]6[C@H]5O4)CC(=O)C[C@@H]3[C@@H](OC)[C@@H](C[C@@H](COC(C)=O)OC(C)=O)O[C@H]3C[C@H]3O[C@@H](CC[C@@H]1O2)C[C@@H](C)C3=C | 9.49 | 9.36 | Non-toxic | 9.49 | 8.78 | 8.56
C=C1C[C@@H]2CC[C@@]34C[C@H]5O[C@H]6[C@@H](O3)[C@H]3O[C@H](CC[C@@H]3O[C@H]6[C@H]5O4)CC(=O)C[C@@H]3[C@@H](OC)[C@@H](CC)O[C@H]3C[C@H]3O[C@@H](CC[C@@H]1O2)C[C@@H](C)C3=C | – | – | Non-toxic | 8.97 | 1.81 | 8.87
CC[C@]1(O)C[C@@H]2CN(CCc3c([nH]c4ccccc34)[C@@](C(=O)OC)(c3cc4c(cc3OC)N(C)[C@H]3[C@@](O)(C(=O)OC)[C@H](OC(C)=O)[C@]5(CC)C=CCN6CC[C@]43[C@@H]65)C2)C1 [VINBLASTINE] | 7.55 | – | Non-toxic | 8.64 | 224.18 | 6.36

Continued, in another order:

pIC50 (HCT-15) | pIC50 (DLD-1) | Compound | Activity [1] | pIC50 [2] | Ratio IC50 [3] | pIC50 [4]
9.21 | 9.17 | C=C1C[C@@H]2CC[C@@]34C[C@H]5O[C@H]6[C@@H](O3)[C@H]3O[C@H](CC[C@@H]3O[C@H]6[C@H]5O4)CC(=O)C[C@@H]3[C@@H](OC)[C@@H](CC(=O)COC)O[C@H]3C[C@H]3O[C@@H](CC[C@@H]1O2)C[C@@H](C)C3=C | Non-toxic | 9.36 | 6.7 | 8.53
9.40 | 9.35 | C=C1C[C@@H]2CC[C@@]34C[C@H]5O[C@H]6[C@@H](O3)[C@H]3O[C@H](CC[C@@H]3O[C@H]6[C@H]5O4)CC(=O)C[C@@H]3[C@@H](OC)[C@@H](CC(=O)OCC)O[C@H]3C[C@H]3O[C@@H](CC[C@@H]1O2)C[C@@H](C)C3=C | Non-toxic | 9.43 | 3.21 | 8.93
9.40 | 9.33 | C=C1C[C@@H]2CC[C@@]34C[C@H]5O[C@H]6[C@@H](O3)[C@H]3O[C@H](CC[C@@H]3O[C@H]6[C@H]5O4)CC(=O)C[C@@H]3[C@@H](OC)[C@@H](CCCO)O[C@H]3C[C@H]3O[C@@H](CC[C@@H]1O2)C[C@@H](C)C3=C | Non-toxic | 9.52 | 18.88 | 8.25
7.74 | 7.76 | C=C1C[C@@H]2CC[C@@]34C[C@H]5O[C@H]6[C@@H](O3)[C@H]3O[C@H](CC[C@@H]3O[C@H]6[C@H]5O4)CC(=O)C[C@@H]3[C@@H](OC)[C@@H](CC(=O)O)O[C@H]3C[C@H]3O[C@@H](CC[C@@H]1O2)C[C@@H](C)C3=C | Non-toxic | 7.91 | 7.72 | 7.02
9.64 | 9.57 | C=C1C[C@@H]2CC[C@@]34C[C@H]5O[C@H]6[C@@H](O3)[C@H]3O[C@H](CC[C@@H]3O[C@H]6[C@H]5O4)CC(=O)C[C@@H]3[C@@H](OC)[C@@H](C[C@H](O)COCC)O[C@H]3C[C@H]3O[C@@H](CC[C@@H]1O2)C[C@@H](C)C3=C | Non-toxic | 9.70 | 11.2 | 8.65
9.32 | 9.11 | C=C1C[C@@H]2CC[C@@]34C[C@H]5O[C@H]6[C@@H](O3)[C@H]3O[C@H](CC[C@@H]3O[C@H]6[C@H]5O4)CC(=O)C[C@@H]3[C@@H](OC)[C@@H](C[C@@H](CN=[N+]=[N-])OC)O[C@H]3C[C@H]3O[C@@H](CC[C@@H]1O2)C[C@@H](C)C3=C | Non-toxic | 9.36 | 4.19 | 8.73
9.36 | 9.08 | C=C1C[C@@H]2CC[C@@]34C[C@H]5O[C@H]6[C@@H](O3)[C@H]3O[C@H](CC[C@@H]3O[C@H]6[C@H]5O4)CC(=O)C[C@@H]3[C@@H](OC)[C@@H](CC(=O)OC)O[C@H]3C[C@H]3O[C@@H](CC[C@@H]1O2)C[C@@H](C)C3=C | Non-toxic | 9.46 | 4.23 | 8.83
9.66 | 9.70 | C=CCO[C@H](CO)C[C@H]1O[C@H]2C[C@H]3O[C@@H](CC[C@@H]4O[C@@H](CC[C@@]56C[C@H]7O[C@H]8[C@@H](O5)[C@H]5O[C@H](CC[C@@H]5O[C@H]8[C@H]7O6)CC(=O)C[C@@H]2[C@H]1OC)CC4=C)C[C@@H](C)C3=C | Non-toxic | 9.62 | 17.19 | 8.38
9.21 | 8.98 | C=C1C[C@@H]2CC[C@@]34C[C@H]5O[C@H]6[C@@H](O3)[C@H]3O[C@H](CC[C@@H]3O[C@H]6[C@H]5O4)CC(=O)C[C@@H]3[C@@H](OC)[C@@H](C[C@@H](CC#N)OC)O[C@H]3C[C@H]3O[C@@H](CC[C@@H]1O2)C[C@@H](C)C3=C | Non-toxic | 9.40 | 9.86 | 8.41
9.17 | 9.12 | C=C1C[C@@H]2CC[C@@]34C[C@H]5O[C@H]6[C@@H](O3)[C@H]3O[C@H](CC[C@@H]3O[C@H]6[C@H]5O4)CC(=O)C[C@@H]3[C@@H](OC)[C@@H](C[C@@H](CO)OC)O[C@H]3C[C@H]3O[C@@H](CC[C@@H]1O2)C[C@@H](C)C3=C | Non-toxic | 9.52 | 37.73 | 7.95
9.62 | 9.42 | C=C1C[C@@H]2CC[C@@]34C[C@H]5O[C@H]6[C@@H](O3)[C@H]3O[C@H](CC[C@@H]3O[C@H]6[C@H]5O4)CC(=O)C[C@@H]3[C@@H](OC)[C@@H](CCOC)O[C@H]3C[C@H]3O[C@@H](CC[C@@H]1O2)C[C@@H](C)C3=C | Non-toxic | 9.72 | 4.08 | 9.11
9.26 | 9.10 | C=C1C[C@@H]2CC[C@@]34C[C@H]5O[C@H]6[C@@H](O3)[C@H]3O[C@H](CC[C@@H]3O[C@H]6[C@H]5O4)CC(=O)C[C@@H]3[C@@H](OC)[C@@H](C[C@@H](COCC)OCC)O[C@H]3C[C@H]3O[C@@H](CC[C@@H]1O2)C[C@@H](C)C3=C | Non-toxic | 9.27 | 4.4 | 8.62
